The record followed here is the NIST ThermoML archive (doi:10.1016/j.jct.2017.01.011).

The term speed of sound denotes how fast a sound wave travels through the sample. A word on the mass density: it is mass per unit of volume.

Data set [1] is described as follows: xn = mol fraction of the nth substance listed. To be noted: 100 kPa, Liquid, x1 = 1; for speed of sound: Frequency=3 MHz, Single path-length method; for mass density: Vibrating tube method.
For data set [2] the following is noted: 100 kPa, Liquid; for speed of sound: Frequency=3 MHz, Single path-length method; for mass density: Vibrating tube method.

± gives the expanded uncertainty stated by the source.

Turning to `CCO` [ethanol] + OCC(O)CO, the speed of sound was 1196.8 ± 4.1 m/s in data set [1] (283.15 K), 1162.3 ± 4.1 m/s in data set [1] (293.15 K), 1128.2 ± 4.1 m/s in data set [1] (303.15 K) and 1094.5 ± 4.1 m/s in data set [1] (313.15 K). Besides, the mass density in data set [1] (283.15 K) amounted to 798 ± 1 kg/m3; in data set [1] (293.15 K), 790 ± 1 kg/m3; in data set [1] (303.15 K), 781 ± 1 kg/m3; in data set [1] (313.15 K) it was 772 ± 1 kg/m3.
As for `OCC(O)CO` [glycerol], the speed of sound in data set [2] (283.15 K) is reported as 1942.3 ± 6.1 m/s; in data set [2] (293.15 K), 1922.9 ± 6.1 m/s; in data set [2] (303.15 K), 1901 ± 6.1 m/s; in data set [2] (313.15 K) it was 1879.3 ± 6.1 m/s. Further, the mass density in data set [2] (283.15 K) is 1267 ± 1 kg/m3; in data set [2] (293.15 K) it was 1261 ± 1 kg/m3; in data set [2] (303.15 K) it was 1255 ± 1 kg/m3; in data set [2] (313.15 K), 1248 ± 1 kg/m3.
On to `CO` [methanol] + OCC(O)CO, for which the speed of sound was found to be 1153.3 ± 4.1 m/s in data set [1] (283.15 K), 1119.6 ± 4.1 m/s in data set [1] (293.15 K), 1086.6 ± 4.1 m/s in data set [1] (303.15 K) and 1054.2 ± 4.1 m/s in data set [1] (313.15 K). The mass density in data set [1] (283.15 K) was found to be 801 ± 1 kg/m3; in data set [1] (293.15 K), 791 ± 1 kg/m3; in data set [1] (303.15 K), 782 ± 1 kg/m3; in data set [1] (313.15 K), 772 ± 1 kg/m3.
